Laboratory results published in US10570117B2, “Phenylimidazole compound” (Otsuka Pharmaceutical Factory, Inc., priority 2015, dated 2020).
In brackets after ≈: the same amount, converted by molar mass. Read-outs that look alike come from different tables or passages of the source.

Assays:
[1] = tested on: lipoprotein lipase (LPL) gene; experiment: LPL mRNA elevating action (RT-PCR quantification of LPL mRNA in C2Cl2 cells); assay type: cell-based, mouse; settings: Mus musculus, 24 h, compound 10 μM, ratio relative to the amount of LPL mRNA in cells with DMSO only, read-out: Rate of increase in LPL mRNA
Procedure: LPL mRNA Elevating Action
C2Cl2 cells (cell strain derived from striated muscle of mouse) were seeded in 96-well plates using a DMEM medium (Gibco) (containing 2 mM L-glutamine and 10% fetal bovine serum). After the cells were grown, the medium was removed. Subsequently, media obtained by adding dimethyl sulfoxide (DMSO) solutions of the compounds to the same medium as described above to a concentration of 10 μM were individually added to the cells and allowed to stand for 24 hours. The compound-containing media were removed, and the plates were washed with phosphate buffered saline. Thereafter, the remaining cells were lysed and subjected to a reverse transcription polymerase chain reaction (RT-PCR reaction) to obtain cDNA. Primers specific to lipoprotein lipase (LPL) gene, a necessary enzyme, etc., were added to the obtained cDNA. The mixture was set in 7500 Fast Real Time PCR System produced by Applied Biosystem to perform a PCR reaction (20 cycles) and the amount of LPL mRNA amplified was quantified. The LPL mRNA elevating action of each compound in the test cells was indicated as the ratio relative to the amount of LPL mRNA in cells allowed to stand in a medium to which only DMSO was added, with the amount being defined as 1.
As Comparative Example 1, a test was performed in the same manner as above, using a compound disclosed as the compound of Example 57 in WO2010/090200.

[2] = Solubility in gastric juice or intestinal juice model fluid (precipitation method using DMSO); assay type: physicochemical; settings: room temperature
Procedure, shortened: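 Dissolved amount (μg/mL) quantified by UV of filtrate versus pre-made calibration curves. Precipitation approach: DMSO solutions spiked into pH 1.2 (JP 1st fluid) or pH 6.8 (JP 2nd fluid) medium, shaken at room temperature for 24 h before insolubles were filtered off.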

[3] = pH 1.2, simulated gastric fluid, kinetic from dmso stock, 1st fluid for Disintegration Test of Japanese Pharmacopoeia (pH: 1.2), read-out: Solubility (μg/mL) 1st fluid
[4] = pH 6.8, kinetic from dmso stock, 2nd fluid for Disintegration Test of Japanese Pharmacopoeia (pH: 6.8), read-out: Solubility (μg/mL) 2nd fluid

| SMILES | melting point | fold induction at 10 µM [1] | solubility at 24 h [2, 3] [µg/mL] | solubility at 24 h [2, 4] [µg/mL] |
| --- | --- | --- | --- | --- |
| COc1cc(OCc2cnc(Cl)cn2)ccc1-c1c[nH]c(-c2ccc(Cl)nc2)n1 [Example 20] | 219 to 221 °C | 2.78 | – | – |
| COc1cc(OCc2ccc(C(F)(F)F)nc2)ccc1-c1c[nH]c(-c2ccc(Cl)cn2)n1 [Example 32] | 186 to 189 °C | 2.58 | – | – |
| COc1cc(OCc2ncccc2C#N)ccc1-c1c[nH]c(-c2ccc(Cl)nc2)n1 [Example 33] | 193 to 195 °C | 2.92 | – | – |
| COc1cc(OCc2cccc(C(F)(F)F)n2)ccc1-c1c[nH]c(-c2ccc(Cl)nc2)n1 [Example 36] | 222 to 224 °C | 2.4 | – | – |
| COc1cc(-c2c[nH]c(-c3ccc(Cl)nc3)n2)cc(OC)c1OCc1ccc(C(F)(F)F)cn1 [Example 71] | 171 to 173 °C (dec.) | 2.37 | – | – |
| COc1cc(OCc2cnc(Cl)cn2)ccc1-c1c[nH]c(-c2ccc(F)nc2)n1 [Example 123] | 197 to 199 °C | 3.22 | – | – |
| COc1cc(OCc2ncc(Cl)cc2Br)ccc1-c1cnc(-c2ccc(F)nc2)[nH]1 [Example 134] | 176 to 180 °C | 2.85 | – | – |
| COc1cc(OCc2ccc(F)cc2F)ccc1-c1cnc(-c2ccc(F)nc2)[nH]1 [Example 142] | 168 to 173 °C | 2.27 | – | – |
| COc1cc(OCc2cccc(C(F)(F)F)n2)ccc1-c1[nH]c(-c2ccc(F)nc2)nc1Cl [Example 172] | 189 to 191 °C | 3.12 | – | – |
| COc1cc(OCc2ccc(C(F)(F)F)cc2)ccc1-c1[nH]c(-c2ccc(F)nc2)nc1Cl [Example 176] | 163 to 166 °C | 2.83 | – | – |
| COc1cc(OCc2ccc(C(F)(F)F)nc2)ccc1-c1nc(-c2ccc(Cl)nc2)[nH]c1Br [Example 222] | 222 to 223 °C (dec.) | 2.89 | – | – |
| COc1cc(OCc2ccc(C(F)(F)F)nc2)ccc1-c1nc(-c2ccc(F)nc2)[nH]c1Br [Example 224, 5-[(4-(4-bromo-2-(6-fluoropyridin-3-yl)-1H-imidazol-5-yl)-3-methoxyphenoxy)methyl]-2-(trifluoromethyl)pyridine] | 195 to 197 °C (dec.) | 2.29 | – | – |
| COc1cc(OCc2ccc(C(F)(F)F)nc2)ccc1-c1nc(-c2ccc(F)nc2)[nH]c1Cl [Example 227] | 176 to 177 °C | 5.08 | – | – |
| COc1cc(-c2cnc(C(C)C)[nH]2)ccc1OCc1ncc(C(F)(F)F)cc1F [Example 382] | – | 1.41 | 74.8 (≈ 183 µM) | 62.1 (≈ 152 µM) |
| CCCCOC(C)n1cc(-c2ccc(OCc3ncc(C(F)(F)F)cc3F)cc2OC)nc1-c1ccc(F)nc1 (centres unmarked) [Example 389] | – | 1.63 | 96 (≈ 171 µM) | 1.8 (≈ 3.2 µM) |
| COc1cc(-c2cnc(CCC(F)(F)F)[nH]2)ccc1OCc1ncc(C(F)(F)F)cc1F [Example 391] | – | 1.58 | 1.1 (≈ 2.37 µM) | 7.1 (≈ 15.3 µM) |
| COc1cc(-c2cnc(-c3ccc(F)nc3)[nH]2)ccc1OC(C)c1ncc(C(F)(F)F)cc1F (centres unmarked) [Example 392] | – | 1.73 | 60.8 (≈ 128 µM) | < 0.3 |
| Fc1ccc(-c2ncc(-c3ccc(OCc4ncc(C(F)(F)F)cc4F)cc3OCc3ccccc3)[nH]2)cn1 [Example 398, 2-[(3-(benzyloxy)-4-(2-(6-fluoropyridin-3-yl)-1H-imidazol-5-yl)phenoxy)methyl]-3-fluoro-5-(trifluoromethyl)pyridine] | – | 2.22 | 79.2 (≈ 147 µM) | 39.7 (≈ 73.7 µM) |
| COc1cc(OCc2ncc(C(F)(F)F)cc2F)ccc1-c1[nH]c(-c2ccc(F)nc2)nc1CO [Example 413, [5-(4-((3-fluoro-5-(trifluoromethyl)pyridin-2-yl)methoxy)-2-methoxyphenyl)-2-(6-fluoropyridin-3-yl)-1H-imidazol-4-yl]methanol] | – | 2.06 | 37 (≈ 75.1 µM) | 2.9 (≈ 5.89 µM) |
